{"source": "patent US20060258746A1", "about": "“Oral medicament for improvement in going to sleep or waking” (Kyowa Hakko Kogyo Co., Ltd., priority 2005, published 2006)", "key": {"normal subjects": {"tested_on": "normal subjects", "assay": "Test Example 2: double blind parallel group test against tablets without ornithine, going to sleep and waking rated by Visual Analogue Scale (VAS) method", "format": "in vivo, human", "conditions": "6 tablets of example 1 a day for 3 weeks; 7 subjects per group; 45 to 64 year", "protocol": "Six tablets of example 1 (the tablet containing ornithine) or 6 tablets of comparative example 1 (the tablet not containing ornithine) were administered to two groups with 7 subjects out of 14 normal subjects of each male and female between 45 to 64 year a day for 3 weeks.\nBefore the administration and just after the administration, the improvements in going to sleep and waking of each subject were evaluated using Visual Analogue Scale (VAS) method.\nSpecifically each end of the segment has a criterion of expression. Referring to FIG. 1, each subject marked somewhere in the line, corresponding to each term of the questionnaires. The distance (mm) from the left end of the line to the marked point was measured and the difference between before and after the test was calculated. The difference by the value before the test was shown in the percentage calculated; and each average value and standard deviation for each group were calculated. Further the average improvement ratio (%) was the value obtained by subtracting the average value of the placebo group from the average value of ornithine group. Further, it was confirmed that there was no difference between two groups before the administration test.\nFurther the test was carried out under a random assignment and the comparison between the double blind parallel groups was carried out. […]"}, "subjects": {"tested_on": "subjects", "assay": "Test Example 1: intake of ornithine tablets, improvement in waking compared with before administration", "format": "in vivo, human"}}}
{"smiles": "NCCC[C@H](N)C(=O)O", "note": "[ornithine]", "values": [{"measurement": "improvement in going to sleep (VAS, average improvement ratio vs placebo group, FIG. 2)", "setting": "normal subjects", "value": "improvement in going to sleep were obtained"}, {"measurement": "improvement in the waking process (VAS, average improvement ratio vs placebo group, FIG. 2)", "setting": "normal subjects", "value": "improvement in the waking process was evident"}, {"measurement": "effect on the waking process (conclusion of test result)", "setting": "subjects; oral intake of ornithine tablets", "value": "improved the waking process"}, {"measurement": "subjects who showed an improvement in waking", "setting": "subjects; oral, ornithine taken just before going to sleep", "value": "3 subjects out of the 6 subjects"}, {"measurement": "effect of intake just before going to sleep (conclusion of test result)", "setting": "subjects; oral, taken just before going to sleep", "value": "effective"}]}
